Source: patent publication US20120270929A1, “MODULATION OF TTC39 EXPRESSION TO INCREASE HDL” (ISIS Pharmaceuticals, Inc., priority 2009, published 2012)
Oligonucleotides are written 5' to 3', each unit as a sugar letter and its base; * is a phosphorothioate linkage, no mark a phosphodiester; rarer units and linkages stand in square brackets, end groups in braces. Plain capitals give the bases only. e = 2'-O-(2-methoxyethyl) (MOE); [5mC] = 5-methylcytosine; d = 2'-deoxy (DNA)

Experiments:
[1] = Liver function: plasma transaminases (ALT, AST) in C57BL/6 mice; format: in vivo, mouse
Protocol: (§1) Four groups of five mice each were injected twice a week with 25 mg/kg (totaling 50 mg/kg/week) of ISIS 447114, ISIS 447118, ISIS 447143, or ISIS 447144 for 6 weeks. A control group of five mice was injected with phosphate buffered saline (PBS) twice a week for 6 weeks. Plasma samples were obtained before the start of treatment, at week 3 and at week 6. At the end of the treatment period, mice were fasted for 4 hours before being euthanized. Plasma and tissue samples were obtained for further analysis.
To evaluate the impact of ISIS oligonucleotides on the hepatic function of the mice described above, plasma concentrations of transaminases were measured using an automated clinical chemistry analyzer (Olympus Clinical Analyzer). Measurements of alanine transaminase (ALT) and aspartate transaminase (AST) are expressed in IU/L. The results are presented in Tables 19 and 20 and indicate that the oligonucleotides were well tolerated.

[2] = Plasma cholesterol and triglycerides in C57BL/6 mice (Olympus AU400e); format: in vivo, mouse; settings: for total cholesterol % increase over baseline: 6 weeks, baseline average of 72 mg/dL
Protocol: as §1
To investigate the effect of inhibition of TTC39B on triglycerides and cholesterol levels in the plasma, samples were collected on weeks 0, 3, and 6, and total plasma cholesterol, LDL cholesterol, HDL cholesterol, and triglycerides were analyzed on an Olympus AU400e Analyzer.

[3] = Body and organ weights in C57BL/6 mice; format: in vivo, mouse; settings: for Kidney weight after treatment / Liver weight after treatment / Spleen weight after treatment: 50 mg/kg/week, 6 weeks
Protocol: as §1
Body weights of all the mice were measured weekly till the end of the treatment period. Organ weights were taken at the end of the treatment period when the mice were euthanized.

PCSK9 mRNA = PCSK9 mRNA levels in C57BL/6 mice; format: in vivo, mouse; settings: 50 mg/kg/week, 6 weeks, compared to PBS control
Protocol: as §1
(§2) The effect of inhibition of TTC39B in mice on cholesterol homeostasis was studied. PCSK9 mRNA levels were measured using the murine primer probe set mPCSK9 (forward sequence ACCGACTTCAACAGCGTGC, designated herein as SEQ ID NO: 106; reverse sequence GGCTGTCACACTTGCTCGC, designated herein as SEQ ID NO: 107, probe sequence AGGATGGGACACGCTTCCACAGACAX, wherein X is a fluorophore, designated herein as SEQ ID NO: 108). LDLR mRNA levels were measured using the murine primer probe set mLDLR (forward sequence GACCGCAGCGAGTACACCA, designated herein as SEQ ID NO: 109; reverse sequence TCACCTCCGTGTCGAGAGC, designated herein as SEQ ID NO: 110, probe sequence […], designated herein as SEQ ID NO: 111). The results are presented as percentage inhibition compared to the PBS control.

LDLR mRNA = LDLR mRNA levels in C57BL/6 mice; format: in vivo, mouse; settings: 50 mg/kg/week, 6 weeks, compared to PBS control
Protocol: as §1, §2

murine TTC39B mRNA = experiment: Dose-dependent antisense inhibition of murine TTC39B in mouse primary hepatocytes (Example 2); format: cell-based; settings: cytofectin, ~16 h
How it was run: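 Mouse primary hepatocytes (10,000/well) transfected via cytofectin with 25, 50, 100 or 200 nM antisense oligonucleotide for about 16 h. TTC39B mRNA quantified by real-time PCR, normalized to RIBOGREEN total RNA, as % inhibition versus untreated cells.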

[4] = tested on: Insulin induced gene 1 (Insig1) mRNA; experiment: PCR microarray analysis of liver, LDLr-/- mice: Insig1; format: in vivo, mouse; settings: 6 weeks
Protocol: Four groups of five male mice each were injected with a total of 1.5, 5, 15, or 50 mg/kg/week of ISIS 447118 for 6 weeks. A group of five mice was injected with a total of 50 mg/kg/week of control oligonucleotide ISIS 141923 ([…], designated herein as SEQ ID NO: 112, which has no known murine target) for 6 weeks. A control group of five mice was injected with phosphate buffered saline (PBS) twice a week for 6 weeks. Plasma samples were obtained before the start of treatment, at week 3 and at week 6. At the end of the treatment period, the mice were euthanized. Plasma and tissue samples were obtained for further analysis.
Liver samples from the mice groups were analyzed using a commercial kit for PCR microarray analysis (SA Biosciences Corp., MD), according to the manufacturer's instructions. Genes involved in lipoprotein and cholesterol metabolism were compared with the PBS control.

[5] = Week 0 (before treatment), 50 mg/kg/week

## TATTTCTATAGCTCATGACA (antisense eT*eA*eT*eT*eT*d[5mC]*dT*dA*dT*dA*dG*d[5mC]*dT*d[5mC]*dA*eT*eG*eA*e[5mC]*eA) [ISIS 447144]
[1]; [5]
  ALT levels: 28 IU/L
  AST levels: 67 IU/L
[1]; Week 3, 50 mg/kg/week
  ALT levels: 21 IU/L
  AST levels: 31 IU/L
[1]; Week 6, 50 mg/kg/week
  ALT levels: 69 IU/L
  AST levels: 113 IU/L
[2]; 50 mg/kg/week
  total cholesterol % increase over baseline: +37%
[2]; [5]
  HDL cholesterol levels: 46 mg/dL
  LDL cholesterol levels: 14 mg/dL
  total cholesterol levels: 75 mg/dL
  triglyceride levels: 78 mg/dL
[2]; Week 3, 50 mg/kg/week
  HDL cholesterol levels: 53 mg/dL
  HDL cholesterol levels (% change over baseline): +14%
  LDL cholesterol levels: 14 mg/dL
  total cholesterol levels: 81 mg/dL
  triglyceride levels: 70 mg/dL
[2]; Week 6, 50 mg/kg/week
  HDL cholesterol levels: 90 mg/dL
  HDL cholesterol levels (% change over baseline): +88%
  LDL cholesterol levels: 18 mg/dL
  total cholesterol levels: 107 mg/dL
  triglyceride levels: 91 mg/dL
[3]
  Kidney weight after treatment: 0.34 g
  Liver weight after treatment: 1.3 g
  Spleen weight after treatment: 0.08 g
[3]; Week 3, 50 mg/kg/week
  body weight: 26 g
[3]; Week 6, 50 mg/kg/week
  body weight: 28 g
[3]; week 1, 50 mg/kg/week
  body weight: 25 g
[3]; week 2, 50 mg/kg/week
  body weight: 26 g
[3]; week 4, 50 mg/kg/week
  body weight: 27 g
[3]; week 5, 50 mg/kg/week
  body weight: 27 g
PCSK9 mRNA
  Percent inhibition PCSK9 mRNA levels: 19%
LDLR mRNA
  Percent inhibition LDLR mRNA levels: 2%
Murine TTC39B mRNA; 25 nM
  percent inhibition of TTC39B mRNA: 37%
Murine TTC39B mRNA; 50 nM
  percent inhibition of TTC39B mRNA: 69%
Murine TTC39B mRNA; 100 nM
  percent inhibition of TTC39B mRNA: 74%
Murine TTC39B mRNA; 200 nM
  percent inhibition of TTC39B mRNA: 84%

## GCCACCAGTGCCTGCTGAGC (antisense eG*e[5mC]*e[5mC]*eA*e[5mC]*d[5mC]*dA*dG*dT*dG*d[5mC]*d[5mC]*dT*dG*d[5mC]*eT*eG*eA*eG*e[5mC]) [ISIS 447143]
[1]; [5]
  ALT levels: 32 IU/L
  AST levels: 50 IU/L
[1]; Week 3, 50 mg/kg/week
  ALT levels: 31 IU/L
  AST levels: 31 IU/L
[1]; Week 6, 50 mg/kg/week
  ALT levels: 45 IU/L
  AST levels: 73 IU/L
[2]; 50 mg/kg/week
  total cholesterol % increase over baseline: +46%
[2]; [5]
  HDL cholesterol levels: 44 mg/dL
  LDL cholesterol levels: 13 mg/dL
  total cholesterol levels: 70 mg/dL
  triglyceride levels: 95 mg/dL
[2]; Week 3, 50 mg/kg/week
  HDL cholesterol levels: 56 mg/dL
  HDL cholesterol levels (% change over baseline): +28%
  LDL cholesterol levels: 14 mg/dL
  total cholesterol levels: 81 mg/dL
  triglyceride levels: 92 mg/dL
[2]; Week 6, 50 mg/kg/week
  HDL cholesterol levels: 91 mg/dL
  HDL cholesterol levels (% change over baseline): +104%
  LDL cholesterol levels: 17 mg/dL
  total cholesterol levels: 104 mg/dL
  triglyceride levels: 95 mg/dL
[3]
  Kidney weight after treatment: 0.34 g
  Liver weight after treatment: 1.5 g
  Spleen weight after treatment: 0.08 g
[3]; Week 3, 50 mg/kg/week
  body weight: 27 g
[3]; Week 6, 50 mg/kg/week
  body weight: 28 g
[3]; week 1, 50 mg/kg/week
  body weight: 26 g
[3]; week 2, 50 mg/kg/week
  body weight: 26 g
[3]; week 4, 50 mg/kg/week
  body weight: 27 g
[3]; week 5, 50 mg/kg/week
  body weight: 28 g
PCSK9 mRNA
  Percent inhibition PCSK9 mRNA levels: 65%
LDLR mRNA
  Percent inhibition LDLR mRNA levels: 34%
Murine TTC39B mRNA; 25 nM
  percent inhibition of TTC39B mRNA: 36%
Murine TTC39B mRNA; 50 nM
  percent inhibition of TTC39B mRNA: 71%
Murine TTC39B mRNA; 100 nM
  percent inhibition of TTC39B mRNA: 79%
Murine TTC39B mRNA; 200 nM
  percent inhibition of TTC39B mRNA: 91%

## CGGATGATTCTTGCTGGTAA (antisense e[5mC]*eG*eG*eA*eT*dG*dA*dT*dT*d[5mC]*dT*dT*dG*d[5mC]*dT*eG*eG*eT*eA*eA) [ISIS 447114]
[1]; [5]
  ALT levels: 46 IU/L
  AST levels: 83 IU/L
[1]; Week 3, 50 mg/kg/week
  ALT levels: 21 IU/L
  AST levels: 29 IU/L
[1]; Week 6, 50 mg/kg/week
  ALT levels: 40 IU/L
  AST levels: 93 IU/L
[2]; 50 mg/kg/week
  total cholesterol % increase over baseline: +61%
[2]; [5]
  HDL cholesterol levels: 42 mg/dL
  LDL cholesterol levels: 11 mg/dL
  total cholesterol levels: 66 mg/dL
  triglyceride levels: 107 mg/dL
[2]; Week 3, 50 mg/kg/week
  HDL cholesterol levels: 47 mg/dL
  HDL cholesterol levels (% change over baseline): +14%
  LDL cholesterol levels: 12 mg/dL
  total cholesterol levels: 70 mg/dL
  triglyceride levels: 66 mg/dL
[2]; Week 6, 50 mg/kg/week
  HDL cholesterol levels: 96 mg/dL
  HDL cholesterol levels (% change over baseline): +130%
  LDL cholesterol levels: 19 mg/dL
  total cholesterol levels: 114 mg/dL
  triglyceride levels: 113 mg/dL
[3]
  Kidney weight after treatment: 0.33 g
  Liver weight after treatment: 1.3 g
  Spleen weight after treatment: 0.09 g
[3]; Week 3, 50 mg/kg/week
  body weight: 26 g
[3]; Week 6, 50 mg/kg/week
  body weight: 27 g
[3]; week 1, 50 mg/kg/week
  body weight: 25 g
[3]; week 2, 50 mg/kg/week
  body weight: 25 g
[3]; week 4, 50 mg/kg/week
  body weight: 26 g
[3]; week 5, 50 mg/kg/week
  body weight: 27 g
PCSK9 mRNA
  Percent inhibition PCSK9 mRNA levels: 24%
LDLR mRNA
  Percent inhibition LDLR mRNA levels: 2%
Murine TTC39B mRNA; 25 nM
  percent inhibition of TTC39B mRNA: 42%
Murine TTC39B mRNA; 50 nM
  percent inhibition of TTC39B mRNA: 70%
Murine TTC39B mRNA; 100 nM
  percent inhibition of TTC39B mRNA: 85%
Murine TTC39B mRNA; 200 nM
  percent inhibition of TTC39B mRNA: 92%

## GCAGCTCGATTCGGGCATGA (antisense eG*e[5mC]*eA*eG*e[5mC]*dT*d[5mC]*dG*dA*dT*dT*d[5mC]*dG*dG*dG*e[5mC]*eA*eT*eG*eA) [ISIS 447118]
[4]; 1.5 mg/kg
  Insig1 fold increase/decrease relative to PBS group: 0.96 fold
[4]; 5 mg/kg
  Insig1 fold increase/decrease relative to PBS group: 0.84 fold
[4]; 15 mg/kg
  Insig1 fold increase/decrease relative to PBS group: 0.68 fold
[4]; 50 mg/kg
  Insig1 fold increase/decrease relative to PBS group: 0.67 fold
[1]; [5]
  ALT levels: 29 IU/L
  AST levels: 88 IU/L
[1]; Week 3, 50 mg/kg/week
  ALT levels: 39 IU/L
  AST levels: 39 IU/L
[1]; Week 6, 50 mg/kg/week
  ALT levels: 50 IU/L
  AST levels: 127 IU/L
[2]; 50 mg/kg/week
  total cholesterol % increase over baseline: +37%
[2]; [5]
  HDL cholesterol levels: 45 mg/dL
  LDL cholesterol levels: 14 mg/dL
  total cholesterol levels: 71 mg/dL
  triglyceride levels: 82 mg/dL
[2]; Week 3, 50 mg/kg/week
  HDL cholesterol levels: 50 mg/dL
  HDL cholesterol levels (% change over baseline): +15%
  LDL cholesterol levels: 13 mg/dL
  total cholesterol levels: 77 mg/dL
  triglyceride levels: 69 mg/dL
[2]; Week 6, 50 mg/kg/week
  HDL cholesterol levels: 100 mg/dL
  HDL cholesterol levels (% change over baseline): +89%
  LDL cholesterol levels: 15 mg/dL
  total cholesterol levels: 97 mg/dL
  triglyceride levels: 88 mg/dL
[3]
  Kidney weight after treatment: 0.32 g
  Liver weight after treatment: 1.4 g
  Spleen weight after treatment: 0.08 g
[3]; Week 3, 50 mg/kg/week
  body weight: 26 g
[3]; Week 6, 50 mg/kg/week
  body weight: 27 g
[3]; week 1, 50 mg/kg/week
  body weight: 24 g
[3]; week 2, 50 mg/kg/week
  body weight: 25 g
[3]; week 4, 50 mg/kg/week
  body weight: 26 g
[3]; week 5, 50 mg/kg/week
  body weight: 27 g
PCSK9 mRNA
  Percent inhibition PCSK9 mRNA levels: 45%
LDLR mRNA
  Percent inhibition LDLR mRNA levels: 6%
Murine TTC39B mRNA; 25 nM
  percent inhibition of TTC39B mRNA: 49%
Murine TTC39B mRNA; 50 nM
  percent inhibition of TTC39B mRNA: 65%
Murine TTC39B mRNA; 100 nM
  percent inhibition of TTC39B mRNA: 74%
Murine TTC39B mRNA; 200 nM
  percent inhibition of TTC39B mRNA: 82%
